Experimental data taken from US10131652B2, “Pyrimidinyloxy benzene derivatives as herbicides” (E. I. DU PONT DE NEMOURS AND COMPANY, priority 2014, dated 2018).

How the values were obtained:
Assay in all cases: Test F pre-/postemergence plant response
Type in all cases: in vivo
Conditions in all cases: scale 0 to 100
[1] = tested on: waterhemp (common waterhemp, Amaranthus rudis)
Outline: (§1)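 Seeds were sown in silt loam and sprayed preemergence; in parallel, plants at 2–18 cm (1- to 4-leaf) received postemergence sprays. Test chemicals were in a non-phytotoxic solvent with surfactant. After 14–21 days in the greenhouse, injury was rated visually against controls on a 0–100 scale (100 = complete control).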

[2] = tested on: hairy beggarticks (Bidens pilosa)
Outline: as §1

[3] = tested on: green foxtail (Setaria viridis)
Outline: as §1

[4] = tested on: yellow nutsedge (Cyperus esculentus)
Outline: as §1

[5] = tested on: ragweed (common ragweed, Ambrosia elatior)
Outline: as §1

corn (Zea mays) = tested on: corn (Zea mays)
Outline: as §1

kochia (Kochia scoparia) = tested on: kochia (Kochia scoparia)
Outline: as §1

[6] = tested on: wild poinsettia (Euphorbia heterophylla)
Outline: as §1

[7] = tested on: johnsongrass (Sorghum halepense)
Outline: as §1

[8] = tested on: fall panicum (Panicum dichotomiflorum)
Outline: as §1

[9] = tested on: velvetleaf (Abutilon theophrasti)
Outline: as §1

[10] = tested on: field bindweed (Convolvulus arvensis)
Outline: as §1

[11] = tested on: arrowleaf sida (Sida rhombifolia)
Outline: as §1

[12] = tested on: goosegrass (Eleusine indica)
Outline: as §1

[13] = tested on: nightshade (eastern black nightshade, Solanum ptycanthum)
Outline: as §1

[14] = tested on: palmer pigweed (Amaranthus palmeri)
Outline: as §1

CC(F)(F)c1cc(-c2ccccc2Oc2ncc(Br)cn2)no1 [Compound 149]
Plant response rating, Waterhemp ([1]; 16 g ai/ha Postemergence): 85 | Plant response rating, Waterhemp ([1]; 16 g ai/ha Preemergence): 35 | Plant response rating, Waterhemp ([1]; 31 g ai/ha Postemergence): 95 | Plant response rating, Waterhemp ([1]; 31 g ai/ha Preemergence): 100 | Plant response rating, Waterhemp ([1]; 62 g ai/ha Postemergence): 95 | Plant response rating, Waterhemp ([1]; 125 g ai/ha Postemergence): 98 | Plant response rating, Waterhemp ([1]; 125 g ai/ha Preemergence): 100 | Plant response rating, Waterhemp ([1]; Preemergence): 100 | Plant response rating, Beggarticks ([2]; 16 g ai/ha Postemergence): 5 | Plant response rating, Beggarticks ([2]; 16 g ai/ha Preemergence): 0 | Plant response rating, Beggarticks ([2]; 31 g ai/ha Postemergence): 30 | Plant response rating, Beggarticks ([2]; 31 g ai/ha Preemergence): 0 | Plant response rating, Beggarticks ([2]; 62 g ai/ha Postemergence): 40 | Plant response rating, Beggarticks ([2]; 62 g ai/ha Preemergence): 0 | Plant response rating, Beggarticks ([2]; 125 g ai/ha Postemergence): 50 | Plant response rating, Beggarticks ([2]; 125 g ai/ha Preemergence): 0 | Plant response rating, Foxtail, Green ([3]; 16 g ai/ha Preemergence): 0 | Plant response rating, Foxtail, Green ([3]; 31 g ai/ha Preemergence): 0 | Plant response rating, Foxtail, Green ([3]; 125 g ai/ha Preemergence): 50 | Plant response rating, Foxtail, Green ([3]; Preemergence): 50 | Plant response rating, Nutsedge, Yellow ([4]; 16 g ai/ha Preemergence): 0 | Plant response rating, Nutsedge, Yellow ([4]; 31 g ai/ha Preemergence): 0 | Plant response rating, Nutsedge, Yellow ([4]; 125 g ai/ha Preemergence): 15 | Plant response rating, Nutsedge, Yellow ([4]; Preemergence): 0 | Plant response rating, Ragweed ([5]; 16 g ai/ha Postemergence): 10 | Plant response rating, Ragweed ([5]; 16 g ai/ha Preemergence): 20 | Plant response rating, Ragweed ([5]; 31 g ai/ha Postemergence): 40 | Plant response rating, Ragweed ([5]; 31 g ai/ha Preemergence): 25 | Plant response rating, Ragweed ([5]; 62 g ai/ha Postemergence): 30 | Plant response rating, Ragweed ([5]; 125 g ai/ha Postemergence): 35 | Plant response rating, Ragweed ([5]; 125 g ai/ha Preemergence): 20 | Plant response rating, Ragweed ([5]; Preemergence): 35 | Plant response rating, Corn (corn (Zea mays); 16 g ai/ha Postemergence): 0 | Plant response rating, Corn (corn (Zea mays); 16 g ai/ha Preemergence): 0 | Plant response rating, Corn (corn (Zea mays); 31 g ai/ha Postemergence): 10 | Plant response rating, Corn (corn (Zea mays); 31 g ai/ha Preemergence): 0 | Plant response rating, Corn (corn (Zea mays); 62 g ai/ha Postemergence): 10 | Plant response rating, Corn (corn (Zea mays); 62 g ai/ha Preemergence): 0 | Plant response rating, Corn (corn (Zea mays); 125 g ai/ha Postemergence): 15 | Plant response rating, Corn (corn (Zea mays); 125 g ai/ha Preemergence): 0 | Plant response rating, Kochia (kochia (Kochia scoparia); 16 g ai/ha Postemergence): 60 | Plant response rating, Kochia (kochia (Kochia scoparia); 16 g ai/ha Preemergence): 0 | Plant response rating, Kochia (kochia (Kochia scoparia); 31 g ai/ha Postemergence): 80 | Plant response rating, Kochia (kochia (Kochia scoparia); 31 g ai/ha Preemergence): 0 | Plant response rating, Kochia (kochia (Kochia scoparia); 62 g ai/ha Postemergence): 90 | Plant response rating, Kochia (kochia (Kochia scoparia); 125 g ai/ha Postemergence): 95 | Plant response rating, Kochia (kochia (Kochia scoparia); 125 g ai/ha Preemergence): 90 | Plant response rating, Kochia (kochia (Kochia scoparia); Preemergence): 75 | Plant response rating, Poinsettia, Wild ([6]; 16 g ai/ha Postemergence): 50 | Plant response rating, Poinsettia, Wild ([6]; 16 g ai/ha Preemergence): 0 | Plant response rating, Poinsettia, Wild ([6]; 31 g ai/ha Postemergence): 40 | Plant response rating, Poinsettia, Wild ([6]; 31 g ai/ha Preemergence): 0 | Plant response rating, Poinsettia, Wild ([6]; 62 g ai/ha Postemergence): 60 | Plant response rating, Poinsettia, Wild ([6]; 125 g ai/ha Postemergence): 70 | Plant response rating, Poinsettia, Wild ([6]; 125 g ai/ha Preemergence): 35 | Plant response rating, Poinsettia, Wild ([6]; Preemergence): 0 | Plant response rating, Johnsongrass ([7]; 16 g ai/ha Preemergence): 0 | Plant response rating, Johnsongrass ([7]; 31 g ai/ha Preemergence): 0 | Plant response rating, Johnsongrass ([7]; 125 g ai/ha Preemergence): 15 | Plant response rating, Johnsongrass ([7]; Preemergence): 0 | Plant response rating, Panicum, Fall ([8]; 16 g ai/ha Postemergence): 10 | Plant response rating, Panicum, Fall ([8]; 16 g ai/ha Preemergence): 0 | Plant response rating, Panicum, Fall ([8]; 31 g ai/ha Postemergence): 20 | Plant response rating, Panicum, Fall ([8]; 31 g ai/ha Preemergence): 80 | Plant response rating, Panicum, Fall ([8]; 62 g ai/ha Postemergence): 20 | Plant response rating, Panicum, Fall ([8]; 125 g ai/ha Postemergence): 40 | Plant response rating, Panicum, Fall ([8]; 125 g ai/ha Preemergence): 100 | Plant response rating, Panicum, Fall ([8]; Preemergence): 98 | Plant response rating, Velvetleaf ([9]; 16 g ai/ha Preemergence): 10 | Plant response rating, Velvetleaf ([9]; 31 g ai/ha Preemergence): 70 | Plant response rating, Velvetleaf ([9]; 125 g ai/ha Preemergence): 100 | Plant response rating, Velvetleaf ([9]; Preemergence): 85 | Plant response rating, Field Bindweed ([10]; 16 g ai/ha Postemergence): 60 | Plant response rating, Field Bindweed ([10]; 16 g ai/ha Preemergence): 0 | Plant response rating, Field Bindweed ([10]; 31 g ai/ha Postemergence): 50 | Plant response rating, Field Bindweed ([10]; 31 g ai/ha Preemergence): 50 | Plant response rating, Field Bindweed ([10]; 62 g ai/ha Postemergence): 50 | Plant response rating, Field Bindweed ([10]; 62 g ai/ha Preemergence): 35 | Plant response rating, Field Bindweed ([10]; 125 g ai/ha Postemergence): 75 | Plant response rating, Field Bindweed ([10]; 125 g ai/ha Preemergence): 25 | Plant response rating, Arrowleaf Sida ([11]; 16 g ai/ha Postemergence): 75 | Plant response rating, Arrowleaf Sida ([11]; 16 g ai/ha Preemergence): 0 | Plant response rating, Arrowleaf Sida ([11]; 31 g ai/ha Postemergence): 85 | Plant response rating, Arrowleaf Sida ([11]; 31 g ai/ha Preemergence): 35 | Plant response rating, Arrowleaf Sida ([11]; 62 g ai/ha Postemergence): 95 | Plant response rating, Arrowleaf Sida ([11]; 62 g ai/ha Preemergence): 65 | Plant response rating, Arrowleaf Sida ([11]; 125 g ai/ha Postemergence): 98 | Plant response rating, Arrowleaf Sida ([11]; 125 g ai/ha Preemergence): 100 | Plant response rating, Goosegrass ([12]; 16 g ai/ha Preemergence): 0 | Plant response rating, Goosegrass ([12]; 31 g ai/ha Preemergence): 0 | Plant response rating, Goosegrass ([12]; 125 g ai/ha Preemergence): 60 | Plant response rating, Goosegrass ([12]; Preemergence): 40 | Plant response rating, Nightshade ([13]; 16 g ai/ha Preemergence): 0 | Plant response rating, Nightshade ([13]; 31 g ai/ha Preemergence): 80 | Plant response rating, Nightshade ([13]; 125 g ai/ha Preemergence): 100 | Plant response rating, Nightshade ([13]; Preemergence): 98 | Plant response rating, Pigweed, Palmer ([14]; 16 g ai/ha Postemergence): 65 | Plant response rating, Pigweed, Palmer ([14]; 16 g ai/ha Preemergence): 25 | Plant response rating, Pigweed, Palmer ([14]; 31 g ai/ha Postemergence): 95 | Plant response rating, Pigweed, Palmer ([14]; 31 g ai/ha Preemergence): 90 | Plant response rating, Pigweed, Palmer ([14]; 62 g ai/ha Postemergence): 98 | Plant response rating, Pigweed, Palmer ([14]; 125 g ai/ha Postemergence): 100 | Plant response rating, Pigweed, Palmer ([14]; 125 g ai/ha Preemergence): 100 | Plant response rating, Pigweed, Palmer ([14]; Preemergence): 100
